From patent US20250381277A1, “COMPOSITIONS AND METHODS FOR TREATMENT OF NEUROLOGICAL DISORDERS” (Dana-Farber Cancer Institute, Inc., priority 2022, published 2025)
Entries after “also recorded” stand apart in the source; their conditions may differ.

Columns and labels:
[1] = test system: 5XFAD mice; experiment: Weekly intravenous or intranasal cyclic RGD (Cilengitide) administration to 5XFAD mice: microglial proinflammatory responses; format: in vivo, mouse; conditions: vs saline
Protocol: (A) Schematic outline of cyclic RGD (Cilengitide) administration. Weekly intravenous injection (25 mg/kg) or intranasal delivery (10 mg/kg) of Cilengitide or vehicle control (saline) into 5XFAD mice starting at 6-mo of age for 1 or 2 months. Microglial proinflammatory responses were analyzed after 1-mo or 2-mo treatment. […] IV injection of Cilengitide for 1 month reduced the percentage of CD11c^+ microglia by 50% and decreased CD11c^+ microglial TNF-α production by ˜50% in 5XFAD mice (n=3). […]. […] IV injection of Cilengitide for 2 months reduced the percentage of CD11c+ microglia by 60% and decreased CD11c+ microglial TNF-α production by 55% in 5XFAD mice compared with vehicle (saline) treated control mice (n=3). *p<0.05, **p<0.01, ***p<0.001.
Weekly administration of cyclic RGD (Cilengitide) was given intravenously or intranasally to 6-mo old mice, continuing for 1 or 2 months. Microglial proinflammatory responses and Aβ plaque pathology were analyzed after 1-mo or 2-mo of treatment (FIG. 43A).

[2] = test system: CD11c^+ microglia of 9-mo old 5XFAD and OPN-KO.5XFAD mice; experiment: In vitro analysis of OPN-dependent inhibition of TREM2-lysosomal phagocytic pathway and Aβ degradation; format: cell-based, mouse; conditions: rmOPN 12.5 μg/ml, anti-OPN Ab 10 μg/ml
Protocol: (a) Protocol of in vitro analysis of OPN-dependent inhibition of TREM2-lysosomal phagocytic pathway in 9-mo old 5XFAD and OPN-KO.5XFAD mice. […] (d) The MFI of FAM-Aβ 1-42 after 1 h's incubation was determined by flow cytometry in lysosomes of CD11c^+ microglia (CD11c^+CD68^+) and defined as Aβ MFI1h. MFI of retained FAM-Aβ in lysosomes of CD11c^+ microglia (CD11c^+CD68^+) 24 h after FAM-Aβ1-42 withdrawal was determined and defined as Aβ MFI24h. […] All data are presented as mean±s.e.m.
To test the impact of OPN on TREM2-lysosome activation and AR degradation, microglia enriched by anti-CD11b microbeads (purity >95%, Miltenyi) from 9-mo old 5XFAD and OPN-KO.5XFAD mice were seeded into 12-well plates at 3×10^5 cells/well in conventional microglia culture medium (DMEM-F12 with 10% fetal bovine serum+10% penicillin/streptomycin+10 ng/ml recombinant mouse M-CSF). Microglia were then pre-incubated with anti-OPN Ab (10 μg/ml) for 1 h followed by the incubation with rmOPN ([…]) overnight. Then FAM-labeled Aβ1-42 peptide (1 μM) was added into culture for 1 h. Mean fluorescence intensity (MFI) of FAM-Aβ1-42 in lysosomes of CD11c^+ microglia (CD11c^+CD68^+) after 1 h's incubation was determined by flow cytometry and defined as Aβ MFI1h. FAM-Aβ1-42 was then withdrawn, and cells were cultured for 24 h in the presence or absence with anti-OPN Ab (10 μg/ml) and/or rmOPN (12.5 μg/ml) before analysis of CD11c^+ microglial expression of TREM2, CD68 and MFI of retained FAM-Aβ1-42 in CD11c^+CD68^+ microglia (defined as Aβ MFI24h) by flow cytometry. Aβ degradation rate was calculated as (Aβ MFI1h−Aβ MFI24h)/Aβ MFI1h.

[3] = intranasal 10 mg/kg weekly, 1 month
[4] = intranasal 10 mg/kg weekly, 2 months

Molecule: CC(C)[C@H]1C(=O)N[C@@H](CCCN=C(N)N)C(=O)NCC(=O)N[C@@H](CC(=O)O)C(=O)N[C@H](Cc2ccccc2)C(=O)N1C [Cilengitide]
- decrease of CD11c^+ microglial TNF-α production ([1]; IV 25 mg/kg weekly, 1 month): ~50%
- reduction of percentage of CD11c^+ microglia ([1]; IV 25 mg/kg weekly, 1 month): 50%
- decrease of CD11c+ microglial TNF-α production ([1]; IV 25 mg/kg weekly, 2 months): 55%
- reduction of percentage of CD11c+ microglia ([1]; IV 25 mg/kg weekly, 2 months): 60%
- CD11c^+ microglia (in words) [1, 3]: decrease; also recorded: decreased tendency
- reduction of TNF-α production by CD11c^+ microglia [1, 3]: ~35%
- decrease of percentage of CD11c+ microglia [1, 4]: 35%
- reduction of TNF-α expression by CD11c+ microglia [1, 4]: ~45%

Molecule: rmOPN: recombinant mouse OPN (osteopontin)
- Aβ degradation rate [(Aβ MFI1h−Aβ MFI24h)/Aβ MFI1h] in lysosomes of CD11c^+ microglia ([2]; FAM-Aβ1-42 1 μM): substantial reduction of Aβ degradation; also recorded: significantly reduced the Aβ degradation rate
- CD68 expression in CD11c^+ microglia ([2]; OPN-KO.5XFAD microglia): reduced expression of CD68; also recorded: significantly reduced
- TREM2 expression in CD11c^+ microglia ([2]; OPN-KO.5XFAD microglia): sharply inhibited; also recorded: sharply reduced
